Literature values as cited in patent publication US20070122456A1, “Nicotine and Cocoa Powder Compositions” (priority 2001, published 2007).

Conditions: intravenous infusion; smokers and non-smokers similarly

## CN1CCCC1c1cccnc1 (stereo not shown) [nicotine]
  increase of resting metabolic rate: 6.5%
